# Experimental data published in patent US10233187B2, “Fused bicyclic compounds for the treatment of disease” (AKARNA THERAPEUTICS, LTD., priority 2014, dated 2019).
# Target: FXR (Homo sapiens (Human), UniProt Q96RI1)
# Assay: FXR Agonist Assay (Gaussia luciferase reporter)
# Assay type: cell-based
# Settings: cells incubated with compound at 37° C. for 20 hours; Gaussia luciferase luminescence; 10-point dose-response in duplicate
# Protocol: Starting from 3.33 mM of compound in DMSO solution, a 10-point 3-fold serial dilution was made by diluting 5 μL of compound into 10 μL of DMSO. The serially diluted compound was then diluted 1:33 into DMEM. This medium was then diluted ten-fold into the culture medium with the cells (10 μL/well). All concentration points are assayed in duplicate. Plates were incubated at 37° C. for 20 hours. After the incubation, 20 μL of culture medium were removed from each well and mixed with 50 μL of assay solution (Pierce™ Gaussia Luciferase Flash Assay Kit). The luminescence was measured immediately after addition of the Luc substrate with an Envision microplate reader. The raw data was uploaded to CDD and dose-response curves were generated using the Levenberg-Marquardt algorithm integrated into CDD. A negative control DMSO is included on each plate and used to normalize the data with the CDD built-in normalization function.
# Sequence of FXR (Q96RI1 whole entry, species assumed): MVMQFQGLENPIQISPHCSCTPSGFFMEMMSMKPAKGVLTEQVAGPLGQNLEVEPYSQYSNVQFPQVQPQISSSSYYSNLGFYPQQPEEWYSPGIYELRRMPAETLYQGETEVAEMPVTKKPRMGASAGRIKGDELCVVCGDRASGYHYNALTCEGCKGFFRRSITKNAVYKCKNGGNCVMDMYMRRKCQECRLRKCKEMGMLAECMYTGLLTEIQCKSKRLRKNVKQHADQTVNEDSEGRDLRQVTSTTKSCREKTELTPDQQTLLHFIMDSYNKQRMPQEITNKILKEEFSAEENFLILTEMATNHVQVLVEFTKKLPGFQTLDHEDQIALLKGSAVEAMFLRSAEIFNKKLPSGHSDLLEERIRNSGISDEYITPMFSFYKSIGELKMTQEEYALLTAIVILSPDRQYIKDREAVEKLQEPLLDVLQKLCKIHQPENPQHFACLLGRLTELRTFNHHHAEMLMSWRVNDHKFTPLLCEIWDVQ
row,SMILES,EC50
1,"CCOC(=O)C1=CN(C(=O)c2ccc(F)c(F)c2)CC(C)(C)c2c(C)n[nH]c21 [Example 2, (E)-ethyl 6-(3,4-difluorobenzoyl)-3,4,4-trimethyl-1,4,5,6-tetrahydropyrazolo[3,4-d]azepine-8-carboxylate]",< 200 nM
2,"CCOC(=O)C1=CN(C(=O)c2ccc(F)c(F)c2)CC(C)(C)c2c(-c3ccc(F)cc3)n[nH]c21 [Example 3, (E)-ethyl 6-(3,4-difluorobenzoyl)-3-(4-fluorophenyl)-4,4-dimethyl-1,4,5,6-tetrahydropyrazolo[3,4-d]azepine-8-carboxylate]",< 200 nM
3,"CCOC(=O)C1=CN(C(=O)c2ccc(F)c(F)c2)CC(C)(C)c2cn[nH]c21 [Example 4, (E)-ethyl 6-(3,4-difluorobenzoyl)-4,4-dimethyl-1,4,5,6-tetrahydropyrazolo[3,4-d]azepine-8-carboxylate]",200 to 1000 nM
4,CCOC(=O)C1=CN(C(=O)c2ccc(F)c(F)c2)CC(C)(C)c2c(C(C)C)n[nH]c21 [Example 5],< 200 nM
5,CC(C)OC(=O)C1=CN(C(=O)c2ccc(F)c(OCCN3CCOCC3)c2)CC(C)(C)c2c(C(F)(F)F)n[nH]c21 [Example 6],200 to 1000 nM
6,CC(C)OC(=O)C1=CN(C(=O)c2cccc(OCCN3CCOCC3)c2)CC(C)(C)c2c(C(F)(F)F)n[nH]c21 [Example 7],200 to 1000 nM
7,CC(C)NC(=O)C1=CN(C(=O)c2ccc(OCCN3CCOCC3)cc2)CC(C)(C)c2c(C(F)(F)F)n[nH]c21 [Example 8],< 200 nM
8,CC(C)OC(=O)C1=CN(C(=O)c2ccc(OCCCN3CCOCC3)cc2)CC(C)(C)c2c(C(F)(F)F)n[nH]c21 [Example 9],< 200 nM
9,CC(=O)c1n[nH]c2c1C(C)(C)CN(C(=O)c1ccc(F)c(F)c1)C=C2C(=O)OC(C)C [Example 10],< 200 nM
10,CC(C)OC(=O)C1=CN(C(=O)c2cc(F)c(F)cc2Cl)CC(C)(C)c2c(C(F)(F)F)n[nH]c21 [Example 11],< 200 nM
11,CC(C)OC(=O)C1=CN(C(=O)c2ccc(F)c(CN3CCOCC3)c2)CC(C)(C)c2c(C(F)(F)F)n[nH]c21 [Example 12],< 200 nM
12,CC(C)OC(=O)C1=CN(C(=O)c2ccc(OCCN3CCOCC3)cc2)CC(C)(C)c2c(C(F)(F)F)n[nH]c21 [Example 13],< 200 nM
13,CC(C)NC(=O)C1=CN(C(=O)c2ccc(F)c(F)c2)CC(C)(C)c2c(C(F)(F)F)n[nH]c21 [Example 14],< 200 nM
14,CC(C)OC(=O)C1=CN(C(=O)c2ccc(F)cc2F)CC(C)(C)c2c(C(F)(F)F)n[nH]c21 [Example 16],< 200 nM
15,CC(C)OC(=O)C1=CN(C(=O)c2ccc(F)cc2)CC(C)(C)c2c(C(F)(F)F)n[nH]c21 [Example 17],< 200 nM
16,CCCc1n[nH]c2c1C(C)(C)CN(C(=O)c1cccnc1)C=C2C(=O)OC(C)C [Example 18],200 to 1000 nM
17,CCCc1n[nH]c2c1C(C)(C)CN(C(=O)c1ccccn1)C=C2C(=O)OC(C)C [Example 19],1000 to 10000 nM
18,CCCc1n[nH]c2c1C(C)(C)CN(C(=O)c1ccncc1)C=C2C(=O)OC(C)C [Example 20],200 to 1000 nM
19,CCCc1n[nH]c2c1C(C)(C)CN(C(=O)c1ccc(C(F)(F)F)nc1)C=C2C(=O)OC(C)C [Example 21],200 to 1000 nM
20,CC(C)OC(=O)C1=CN(C(=O)N2CCN(C)CC2)CC(C)(C)c2c(C(F)(F)F)n[nH]c21 [Example 22],200 to 1000 nM
21,CC(C)OC(=O)C1=CN(C(=O)c2cccc(F)c2)CC(C)(C)c2c(C(F)(F)F)n[nH]c21 [Example 23],< 200 nM
22,CC(C)OC(=O)C1=CN(C(=O)c2ccc(F)c(F)c2)CC(C)(C)c2c(C(F)(F)F)n[nH]c21 [Example 24],< 200 nM
23,CC(C)Cc1n[nH]c2c1C(C)(C)CN(C(=O)c1cccc(F)c1)C=C2C(=O)OC(C)C [Example 25],< 200 nM
24,CC(C)Cc1n[nH]c2c1C(C)(C)CN(C(=O)c1ccc(F)c(F)c1)C=C2C(=O)OC(C)C [Example 26],< 200 nM

row,SMILES,EC50
1,COCCc1n[nH]c2c1C(C)(C)CN(C(=O)c1cccc(F)c1)C=C2C(=O)OC(C)C [Example 27],< 200 nM
2,COCCc1n[nH]c2c1C(C)(C)CN(C(=O)c1ccc(F)c(F)c1)C=C2C(=O)OC(C)C [Example 28],< 200 nM
3,CCCCc1n[nH]c2c1C(C)(C)CN(C(=O)N1CCOCC1)C=C2C(=O)OC(C)C [Example 29],< 200 nM
4,CCCCc1n[nH]c2c1C(C)(C)CN(C(=O)C1CCCCC1)C=C2C(=O)OC(C)C [Example 30],200 to 1000 nM
5,CCCCc1n[nH]c2c1C(C)(C)CN(C(=O)c1ccc(F)c(F)c1)C=C2C(=O)OC(C)C [Example 31],< 200 nM
6,CCCCc1n[nH]c2c1C(C)(C)CN(C(=O)C1CCOCC1)C=C2C(=O)OC(C)C [Example 32],200 to 1000 nM
7,CCCCc1n[nH]c2c1C(C)(C)CN(C(=O)c1cccc(F)c1)C=C2C(=O)OC(C)C [Example 33],< 200 nM
8,CCCc1n[nH]c2c1C(C)(C)CN(C(=O)N1CCOCC1)C=C2C(=O)OC(C)C [Example 34],200 to 1000 nM
9,CCCc1n[nH]c2c1C(C)(C)CN(C(=O)C1CCCCC1)C=C2C(=O)OC(C)C [Example 35],< 200 nM
10,CCCc1n[nH]c2c1C(C)(C)CN(C(=O)C1CCOCC1)C=C2C(=O)OC(C)C [Example 36],200 to 1000 nM
11,CCCc1n[nH]c2c1C(C)(C)CN(C(=O)c1cccc(F)c1)C=C2C(=O)OC(C)C [Example 37],< 200 nM
12,CCCc1n[nH]c2c1C(C)(C)CN(C(=O)c1ccc(F)c(F)c1)C=C2C(=O)OC(C)C [Example 38],< 200 nM
13,CCCCc1n[nH]c2c1C(C)(C)CN(C(=O)c1ccc(F)c(F)c1)C=C2C(=O)OCC [Example 39],< 200 nM
14,CCCc1n[nH]c2c1C(C)(C)CN(C(=O)c1ccc(F)c(F)c1)C=C2C(=O)OCC [Example 40],< 200 nM
15,CCOC(=O)C1=CN(C(=O)c2ccc(F)c(F)c2)CC(C)(C)c2c(CC)n[nH]c21 [Example 41],< 200 nM
16,CC(C)OC(=O)C1=CN(C(=O)c2ccc(Cl)c(Cl)c2)CC(C)(C)c2cn[nH]c21 [Example 42],< 200 nM
17,CCOC(=O)C1=CN(C(=O)c2ccc3ccccc3c2)CC(C)(C)c2cn[nH]c21 [Example 43],< 200 nM
18,CCOC(=O)C1=CN(C(=O)c2cc3ccccc3s2)CC(C)(C)c2cn[nH]c21 [Example 44],200 to 1000 nM
19,CC(C)NC(=O)C1=CN(C(=O)c2ccc(F)c(F)c2)CC(C)(C)c2cn[nH]c21 [Example 45],200 to 1000 nM
20,CC(C)OC(=O)C1=CN(C(=O)c2ccc(F)c(F)c2)CC(C)(C)c2cn[nH]c21 [Example 46],200 to 1000 nM
21,CCOC(=O)C1=CN(C(=O)c2ccc3c(c2)OC(F)(F)O3)CC(C)(C)c2cn[nH]c21 [Example 47],1000 to 10000 nM
22,CCOC(=O)C1=CN(C(=O)C2CCCCC2)CC(C)(C)c2cn[nH]c21 [Example 48],1000 to 10000 nM
23,CCOC(=O)C1=CN(C(=O)c2cccc(F)c2)CC(C)(C)c2cn[nH]c21 [Example 49],200 to 1000 nM
